# Measurements taken from patent publication US20120034242A1, “CYTOKINE-EXPRESSING CELLULAR VACCINE COMBINATIONS” (BIOSANTE PHARMACEUTICALS, INC., priority 2003, published 2012).
# What was measured:
# Type in all cases: in vivo, mice
# B16F10 = B16F10 model: B16-GM vaccine plus Celebrex; conditions: single agent; preliminary results
# Protocol: FIGS. 9A and 9B illustrate the results of a study in the B16F10 melanoma model wherein the effect of a cytokine-expressing cellular vaccine was evaluated in combination with Celebrex (Celecoxib: 50 mg/kg/day in the feed starting on Day −7). Mice were challenged on Day 0 with 1×10^5 live B16F10 cells at a dorsal location and were vaccinated on Day 3 with 1×10^6 irradiated dB16gmtd cells at a ventral location.
# B16 tumor = assay: B16 melanoma model: B16-GM vaccine plus docetaxel
# Protocol: FIG. 8A illustrates the results of a study in the B16F10 melanoma model wherein the effect of 3 IV injections of docetaxel (total dose 18 mg/kg) administered on days 5, 9, and 13 was evaluated with respect to the percentage of mice that survived.
# FIG. 8B illustrates the study carried out to generate the data shown in FIGS. 8C and D. The study was performed in the B16F10 melanoma model and compared the efficacy of one cycle of a GM-CSF secreting tumor cell vaccine administration combined with one cycle of Taxotere administration to three cycles of vaccine plus three cycles of taxotere.
# FIGS. 8C and 8D illustrate the results of a study in the B16F10 melanoma model (carried out as described in FIG. 8B) wherein the effect of a cytokine-expressing cellular vaccine was evaluated in combination with docetaxel (total dose 18 mg/kg) administered on days 5, 9, and 13. Administration of docetaxel given between bi-weekly vaccinations (three vaccinations total; three cycles) increased the median survival of B16 tumor-bearing mice from 31 days to 52 days when compared to three B16-GM vaccinations alone. […]
# The combination of docetaxel and a GM-CSF-secreting B16F10 tumor cell (B16-GM) vaccine was evaluated in the B16 melanoma model. […]
# [1] = system: ovalbumin-specific TCR transgenic T cells (OT-1); assay: B16 ovalbumin model: tracking of ovalbumin-specific TCR transgenic T cells (OT-1); conditions: data not shown
# Description: B16.ova and B16.GM.ova tumors are B16 cells or B16 cells expressing GM-CSF that were modified to express membrane bound ovalbumin. Ovalbumin acts as a surrogate tumor associated antigen on the tumor cells used for challenge as well as on the vaccine cells. Ovalbumin-specific T cells are used to track “tumor specific” T cell responses in the presence or absence of cells expressing GM-CSF (B16.GM-ova) alone or in combination with another cancer therapeutic agent. An antibody specifically recognizing the T-cell receptor of the ovalbumin specific T-cells is used to follow these “tumor-specific” T-cells. This antibody can be used to monitor the expansion of these tumor-specific T-cells and their activation status following various vaccination regiments. In one exemplary experimental approach, mice received via adoptive transfer ovalbumin-specific T-cells on day −2, are challenged with B16F10.ova on day 0, are vaccinated with B16F10.GM-ova on day 3 and then treated with at least one additional cancer therapeutic agent such as taxotere on day 5 and 9 (6 mg/kg), followed by monitoring of OVA-specific T cells at various time points after vaccination.
Compound,effect on B16F10 tumor size and overall survival (B16F10),"inhibiting B16 tumor growth (B16 tumor; monotherapy, three IV injections, total dose 18 mg/kg)","Median Survival (B16 tumor; one cycle: vaccine three days after challenge, docetaxel IV days 5, 9, 13 (total 18 mg/kg))",survival of ovalbumin-specific TCR transgenic T cells (OT-1) [1]
"Cc1ccc(-c2cc(C(F)(F)F)nn2-c2ccc(S(N)(=O)=O)cc2)cc1 [Celebrex, Celecoxib]",no effect,,,
CC(=O)O[C@@]12CO[C@@H]1C[C@H](O)[C@@]1(C)C(=O)[C@H](O)C3=C(C)[C@@H](OC(=O)[C@H](O)[C@@H](NC(=O)OC(C)(C)C)c4ccccc4)C[C@@](O)([C@@H](OC(=O)c4ccccc4)[C@H]21)C3(C)C [docetaxel],,ineffective,24 days,prolongs
